Our source for the inhibition values is patent US8435978B2, “Substituted sulfonamide compounds” (Gruenenthal GmbH, priority 2006, dated 2013).

A word on the inhibition: it is the drop in the measured response relative to a control, in per cent.

Where a name gives a salt, the structure may show the parent alone.

Assay [1] addresses T1, human B1R receptor (Homo sapiens, UniProt P46663).
T1 construct: host or cells: CHO K1 cells (Chinese hamster ovary), stably transfected
T1 sequence (P46663 1-353): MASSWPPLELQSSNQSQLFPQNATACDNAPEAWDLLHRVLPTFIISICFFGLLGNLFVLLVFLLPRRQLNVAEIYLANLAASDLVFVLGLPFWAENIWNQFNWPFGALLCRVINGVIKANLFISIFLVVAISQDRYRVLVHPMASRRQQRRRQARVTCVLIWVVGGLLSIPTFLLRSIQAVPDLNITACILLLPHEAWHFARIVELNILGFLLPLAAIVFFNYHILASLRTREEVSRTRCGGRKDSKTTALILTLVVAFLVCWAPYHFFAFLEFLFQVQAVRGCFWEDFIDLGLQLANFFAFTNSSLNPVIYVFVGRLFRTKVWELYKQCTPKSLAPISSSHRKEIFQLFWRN
Description: Functional study on the bradykinin receptor 1 (B1R), FLIPR Ca2+ assay, hB1R cells. The assay is classed as cell-based. Conditions: CHO-K1, test substance 10 μM, agonist Lys-Des-Arg9-bradykinin 0.5 nM, % inhibition compared with the maximum achievable inhibition, read-out: B1R Antagonism, human [10 μM] % Inhibition. In short, it runs like this: (§1)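 Readout: peak Fluo-4 Ca2+ fluorescence, FLIPR. Stable CHO K1 hB1R or rB1R cells; cpd 10 μM, 10 min preincubation, then agonist (hB1R: Lys-Des-Arg9-BK 0.5 nM; rB1R: Des-Arg9-BK 100 nM). Value = % inhibition relative to maximal achievable inhibition.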

In assay [2] the target is T2, B1R receptor of the rat (Rattus norvegicus, UniProt P97583).
T2 construct: host or cells: CHO K1 cells (Chinese hamster ovary), stably transfected
T2 sequence (P97583 1-337): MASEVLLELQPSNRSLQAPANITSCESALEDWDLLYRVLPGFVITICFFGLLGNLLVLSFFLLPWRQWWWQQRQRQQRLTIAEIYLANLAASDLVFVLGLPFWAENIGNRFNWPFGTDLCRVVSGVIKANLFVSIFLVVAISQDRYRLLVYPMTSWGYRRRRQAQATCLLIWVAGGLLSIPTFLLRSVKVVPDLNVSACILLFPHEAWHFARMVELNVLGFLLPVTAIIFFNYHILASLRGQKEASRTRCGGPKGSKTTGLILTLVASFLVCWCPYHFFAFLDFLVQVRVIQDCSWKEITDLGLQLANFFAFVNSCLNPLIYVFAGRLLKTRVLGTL
Kind of assay: Functional study on the bradykinin receptor 1 (B1R), FLIPR Ca2+ assay, rB1R cells. Conditions: CHO-K1, test substance 10 μM, agonist Des-Arg9-bradykinin 100 nM, % inhibition compared with the maximum achievable inhibition, read-out: B1R Antagonism, rat [10 μM] % Inhibition. The format is cell-based. In short, it runs like this: as §1

With `COc1cc(C)c(S(=O)(=O)N2CCCCC2COCC(=O)N2CCC(N3CCN(C)CC3)CC2)c(C)c1` (centres unmarked) [Example 112, 2-((1-(4-methoxy-2,6-dimethylphenylsulfonyl)piperidin-2-yl)methoxy)-1-(4-(4-methylpiperazin-1-yl)piperidin-1-yl)ethanone hydrochloride], the inhibition at 10 µM in assay [1] and in assay [2] was 102% each time.

`COc1cccc(N2CCN(C(=O)COCC3CCCCN3S(=O)(=O)c3c(C)cc(C)cc3C)CC2)c1` (centres unmarked) [Example 77, 1-[4-(3-methoxy-phenyl)-piperazin-1-yl]-2-[1-(2,4,6-trimethyl-phenylsulfonyl)-piperidin-2-ylmethoxy]-ethanone]: the inhibition at 10 µM in assay [1] was determined as 48%; in assay [2], 105%.

With `O=C(COCC1CCCCN1S(=O)(=O)c1c(Cl)cccc1Cl)N1CCC(CCN2CCCCC2)CC1` (centres unmarked) [Example 279, 2-((1-(2,6-dichlorophenylsulfonyl)piperidin-2-yl)methoxy)-1-(4-(2-(piperidin-1-yl)ethyl)piperidin-1-yl)ethanone], the inhibition at 10 µM is 104% in assay [1] and 95.4% in assay [2].

Consider `O=C(COCC1Cc2ccccc2CN1S(=O)(=O)c1ccc(Cl)cc1Cl)Nc1cccc(N2CCOCC2)c1` (centres unmarked) [Example 265, 2-((2-(2,4-dichlorophenylsulfonyl)-1,2,3,4-tetrahydroisoquinolin-3-yl)methoxy)-N-(3-morpholinophenyl)acetamide], for which the inhibition at 10 µM in assay [1] worked out at 100%; in assay [2], 51.3%.

With `O=C(COCC1CCCCN1S(=O)(=O)c1ccc(Cl)c(Cl)c1)NCC1CCCN(Cc2ccccc2)C1` (centres unmarked) [Example 70, N-(1-benzyl-piperidin-3-ylmethyl)-2-[1-(3,4-dichloro-phenylsulfonyl)-piperidin-2-yl-methoxy]-acetamide], the inhibition at 10 µM worked out at 53.3% in assay [1] and 42.2% in assay [2].

In the case of `O=C(COCC1CCCN1S(=O)(=O)c1c(Cl)cccc1Cl)N1CCC(CCN2CCCCC2)CC1` (centres unmarked) [Example 286, 2-((1-(2,6-dichlorophenylsulfonyl)pyrrolidin-2-yl)methoxy)-1-(4-(2-(piperidin-1-yl)ethyl)piperidin-1-yl)ethanone], the inhibition at 10 µM worked out at 104% in assay [1] and 97.9% in assay [2].

Consider `CCN1CCN(C(=O)COCC2CCCN2S(=O)(=O)c2c(C)cc(OC)cc2C)CC1` (centres unmarked) [Example 517, 1-(4-ethylpiperazin-1-yl)-2-((1-(4-methoxy-2,6-dimethylphenylsulfonyl)pyrrolidin-2-yl)methoxy)ethanone], for which the results for the inhibition at 10 µM in assay [1] and in assay [2] were 98.8% and 102%, respectively.

With `COc1cc(C)c(S(=O)(=O)N2Cc3ccccc3CC2COCC(=O)N2CCN(C3CCN(C)CC3)CC2)c(C)c1C` (centres unmarked) [Example 562, 2-((2-(4-methoxy-2,3,6-trimethylphenylsulfonyl)-1,2,3,4-tetrahydroisoquinolin-3-yl)methoxy)-1-(4-(1-methylpiperidin-4-yl)piperazin-1-yl)ethanone], the inhibition at 10 µM was 102% in assay [1] and 100% in assay [2].

With `COc1cc(C)c(S(=O)(=O)N2CCCC2COCC(=O)N2CCN(CCn3c(C)ccc3C)CC2)c(C)c1` (centres unmarked) [Example 269, 1-(4-(2-(2,5-dimethyl-1H-pyrrol-1-yl)ethyl)piperazin-1-yl)-2-((1-(4-methoxy-2,6-dimethylphenylsulfonyl)pyrrolidin-2-yl)methoxy)ethanone], the inhibition at 10 µM in assay [1] was 104%; in assay [2], 99%.

As for `CN1CCN(C2CCN(C(=O)COCC3CCCN3S(=O)(=O)c3c(Cl)cccc3Cl)CC2)CC1` (centres unmarked) [Example 285, 2-((1-(2,6-dichlorophenylsulfonyl)pyrrolidin-2-yl)methoxy)-1-(4-(4-methylpiperazin-1-yl)piperidin-1-yl)ethanone], the inhibition at 10 µM was found to be 104% in assay [1] and 91% in assay [2].
